The assay concerns Gram-negative and Gram-positive bacteria. Kind of assay: Bacterial resistance (growth inhibition) assay, environmental isolates. The following applies: M9 medium, 24 h; except B. gladioli GSRB05 and P. putida KT2440; PT as L-PT. The assay is classed as cell-based.

For `CP(=O)(O)CCC(N)C(=O)O` (racemic) [PT, phosphinothricin, reference compound], the “concentration inhibiting each species to the same degree” value was found to be 400 µM.

(Values after US12414932B2, “Arsinothricin and methods of treating infections using arsinothricin” (priority 2018, dated 2025).)
